In US20210161868A1, “ANTI-INFLAMMATORY THERAPY IN ARRHYTHMOGENIC CARDIOMYOPATHY (ACM)” (Beth Israel Deaconess Medical Center, Inc., priority 2018, published 2021):
Entries after “also recorded” stand apart in the source; their conditions may differ.

Tested on: neonatal rat ventricular myocytes (NRVMs) expressing JUP^2157del2
Assay: In vitro cytokine assay of NRVM culture media
Type: cell-based
Details: Bay11-7082 5 μM, 24 hours
Procedure: Primary cultures were prepared from disaggregated ventricles of 1-day-old Wistar rat pups (Charles River) as previously described.^15 Cell suspensions were pre-plated to reduce fibroblast content, placed in collagen-coated chamber slides at a density of 2.4×10^5 cells/cm^2, and grown for 4 days at 37° C. in M199 medium (GIBCO) (supplemented with penicillin, 20 U/mL; streptomycin, 20 μg/mL; 10% neonatal calf serum and 0.1 mM bromodeoxyuridine) in a humidified atmosphere containing 1% CO2. Epinephrine (0.01 μmol/mL) was added during the first 24 hours of culture. At 24 hours post-seeding, cultures were transfected with an adenoviral construct expressing plakoglobin (JUP) with the 2157del2 mutation, as previously reported.^15 At 24 hours post-transfection, cultures were treated with Bay11-7082 (Sigma, […]) for an additional 24 hours. […]
Culture media from cells expressing 2157del2 plakoglobin in the presence or absence of Bay11-7082 (5 μM, 24 hours) were collected after 96 hours in culture, mixed with a cocktail of biotinylated detection antibodies, and incubated with nitrocellulose membranes spotted in duplicate with control and capture antibodies (R&D Systems). […] The cytokine array specifically detected rat cytokines whereas cells were grown in media containing neonatal bovine serum. […]

**Q.** Cc1ccc(S(=O)(=O)/C=C/C#N)cc1 [Bay 11-7082] was tested. Which “accumulation of cytokines and chemoattractants in culture media” value did it give?
**A.** The value was “reduces; also recorded: greatly reduced”.
